Read-outs that look alike come from different tables or passages of the source.
Columns and labels:
[1] = target: T1, dopamine transporter (DAT) (Rattus norvegicus, UniProt P23977); test: Synaptosomal uptake of [3H]DA (inhibition of DA reuptake); format: biochemical
T1 construct: P2 membrane pellets were prepared by differential centrifugation from rat striatum; from tissue; host or cells: rat striatum (P2 membrane pellet / P2 synaptosomes)
Protocol: The effect of candidate compounds in antagonizing dopamine high-affinity uptake was determined using a method previously employed. For [^3H]DA uptake, freshly dissected rat striata were homogenized with a Teflon-glass pestle in ice-cold 0.32 M sucrose and centrifuged for 10 min at 1000×g. The supernatant was centrifuged at 17,500×g for 20 min. This P2 synaptosomal pellet was resuspended in 30 volumes of ice-cold modified KRH buffer. An aliquot of the synaptosomal suspension was preincubated with the buffer and drug for 30 min at 37° C., and uptake initiated by the addition of [^3H]dopamine (5 nM, final conc.). After 5 min, uptake was terminated by adding 5 ml of cold buffer containing glucosamine as a substitute for NaCl and then finally by rapid vacuum filtration over GF-C glass fiber filters, followed by washing with two 5 ml volumes of ice-cold, sodium-free buffer. Radioactivity retained on the filters was determined by liquid scintillation spectrometry. […] It is identical to that calculated by subtracting the mean of identical tubes incubated at 0° C.
(§1) IC50 values were determined by a computer assisted, iterative fit to a four-parameter sigmoidal equation (ALLFIT). These values were then converted to Ki values according to the Cheng-Prusoff equation assuming classical competitive inhibition. Preincubation of the drug and synaptosomes at 37° C. for 30 min was used to approximate equilibrium conditions as necessary to satisfy the requirements of the Cheng-Prusoff equation.
(§2) The effect of candidate compounds in antagonizing dopamine high-affinity uptake was determined using a method previously employed. For [^3H]DA uptake, dissected rat striata were homogenized with a Teflon-glass pestle in ice-cold 0.32 M sucrose and centrifuged for 10 mm at 1000×g. The supernatant was centrifuged at 17,500×g for 20 mm. This P2 synaptosomal pellet was resuspended in 30 volumes of ice-cold modified KRH buffer. An aliquot of the synaptosomal suspension was preincubated with the buffer and drug for 30 mm at 37° C., and uptake initiated by the addition of [^3H]dopamine (5 nM, final conc.). After 5 mm, uptake was terminated by adding 5 ml of cold buffer containing glucosamine as a substitute for NaCl and then finally by rapid vacuum filtration over GF-C glass fiber filters, followed by washing with two 5 ml volumes of ice-cold, sodium-free buffer. Radioactivity retained on the filters was determined by liquid scintillation spectrometry. […] Also, specific uptake of [^3H]5-HT and [^3H]NE were defined in the presence of 10 uM fluoxetine and 1 uM desipramine, respectively.

[2] = target: T1, dopamine transporter (DAT); test: [3H]mazindol binding assay; details: for Ki: rat striatum membranes, mean ± standard error or range of 2-3 experiments
Protocol: Binding assays were conducted as previously described. Briefly conventional P2 membrane pellets were prepared by differential centrifugation from rat striatum. The P2 pellet was resuspended in Krebs-Ringer-HEPES (KRH) buffer consisting of (in mM): NaCl (125), KCl (4.8), MgSO4 (1.2), CaCl2 (1.3), KH2PO4 (1.2), glucose (5.6), nialamide (0.01), and HEPES (25) (pH 7.4) and centrifuged again. Finally, the pellet was resuspended in 30 volumes of buffer, pelleted at 15,000×g and frozen at −80° C. until used. The striatal homogenates were thawed by resuspension in the buffer described above at 75-125 µg protein/ml and incubated with [^3H]mazindol, with or without competing drugs, for 60 min in a 4° C. cold room. […] The bound and free [^3H]mazindol were separated by rapid vacuum filtration over Whatman GF/C filters, using a Brandel M24R cell harvester, followed by two washes with 5 ml of cold buffer. Radioactivity on the filters was then extracted by allowing to sit over night with 5 ml of scintillant. The vials were vortexed and counted. IC50 values were determined using the computer program LIGAND.
For binding assays, caudate nuclei were homogenized using a polytron in 0.32 M sucrose and centrifuged for 10 mm at 1000×g. The supernatant was resuspended in cold sucrose and centrifuged at 17,500×g for 20 mm. The pellet was resuspended in Krebs-Ringer-HEPES (KRH) buffer consisting of (in mM): NaCl (125), KCl (4.8), MgSO4 (1.2), CaCl2 (1.3), KH2PO4(1.2), glucose (5.6), nialamide (0.01), and HEPES (25) (pH 7.4) and centrifuged again. Finally, the pellet was resuspended in 30 volumes of buffer, pelleted at 15,000×g and frozen at −80° C. until used. The striatal homogenates were thawed by resuspension in the buffer described above at 75-125 μg protein/ml and incubated with [^3H]mazindol, with or without competing drugs, for 60 mm in a 4° C. cold room. […] The bound and free [^3H]mazindol were separated by rapid vacuum filtration over Whatman GF/C filters, using a Brandel M24R cell harvester, followed by two washes with 5 ml of cold buffer. Radioactivity on the filters was then extracted by allowing to sit over night with 5 ml of scintillant. The vials were vortexed and counted. IC50 values were determined using the computer program LIGAND.

[3] = target: T2, norepinephrine transporter (Rattus norvegicus, UniProt Q63380); test: Synaptosomal uptake of [3H]NE; format: biochemical
T2 construct: using synaptosomes prepared from rat midbrain and parietal/occipital cortex, respectively; from tissue; host or cells: rat parietal/occipital cortex synaptosomes
Protocol: as §1, §2

[4] = target: T3, serotonin transporter (Rattus norvegicus, UniProt P31652); test: Synaptosomal uptake of [3H]5-HT; format: biochemical
T3 construct: using synaptosomes prepared from rat midbrain and parietal/occipital cortex, respectively; from tissue; host or cells: rat midbrain synaptosomes
Protocol: as §1, §2

[5] = target: DAT (Homo sapiens, UniProt Q01959); details: cited from earlier work
[6] = Ki (nM) DA Reuptake, rat striatal synaptosomes, mean ± standard error or range of 2-3 experiments
[7] = binding affinity and DA reuptake not distinguished in the sentence
[8] = Ki (nM) NE, synaptosomes from rat parietal/occipital cortex, mean ± standard error or range of 2-3 experiments
[9] = Ki (nM) SER, synaptosomes from rat midbrain, mean ± standard error or range of 2-3 experiments
[10] = read-out: Ki (nM) [3H] Mazindol Binding

T1 sequence (P23977 whole entry): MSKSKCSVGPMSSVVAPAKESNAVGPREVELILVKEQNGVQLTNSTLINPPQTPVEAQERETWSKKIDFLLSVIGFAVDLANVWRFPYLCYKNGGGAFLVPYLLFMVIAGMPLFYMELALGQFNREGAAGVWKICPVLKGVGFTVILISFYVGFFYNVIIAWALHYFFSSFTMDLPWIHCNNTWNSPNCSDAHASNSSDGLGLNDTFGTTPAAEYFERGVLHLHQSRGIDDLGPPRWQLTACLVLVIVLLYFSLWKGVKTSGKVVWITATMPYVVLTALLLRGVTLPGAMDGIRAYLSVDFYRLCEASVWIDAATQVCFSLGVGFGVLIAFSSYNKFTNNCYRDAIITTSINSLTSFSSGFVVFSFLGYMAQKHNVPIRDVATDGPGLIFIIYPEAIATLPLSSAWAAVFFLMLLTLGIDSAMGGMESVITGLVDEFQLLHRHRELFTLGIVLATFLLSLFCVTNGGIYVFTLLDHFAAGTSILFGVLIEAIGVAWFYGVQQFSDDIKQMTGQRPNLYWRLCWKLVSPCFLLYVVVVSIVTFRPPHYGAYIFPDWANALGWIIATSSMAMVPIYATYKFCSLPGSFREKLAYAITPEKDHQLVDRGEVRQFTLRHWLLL
T3 sequence (P31652 whole entry): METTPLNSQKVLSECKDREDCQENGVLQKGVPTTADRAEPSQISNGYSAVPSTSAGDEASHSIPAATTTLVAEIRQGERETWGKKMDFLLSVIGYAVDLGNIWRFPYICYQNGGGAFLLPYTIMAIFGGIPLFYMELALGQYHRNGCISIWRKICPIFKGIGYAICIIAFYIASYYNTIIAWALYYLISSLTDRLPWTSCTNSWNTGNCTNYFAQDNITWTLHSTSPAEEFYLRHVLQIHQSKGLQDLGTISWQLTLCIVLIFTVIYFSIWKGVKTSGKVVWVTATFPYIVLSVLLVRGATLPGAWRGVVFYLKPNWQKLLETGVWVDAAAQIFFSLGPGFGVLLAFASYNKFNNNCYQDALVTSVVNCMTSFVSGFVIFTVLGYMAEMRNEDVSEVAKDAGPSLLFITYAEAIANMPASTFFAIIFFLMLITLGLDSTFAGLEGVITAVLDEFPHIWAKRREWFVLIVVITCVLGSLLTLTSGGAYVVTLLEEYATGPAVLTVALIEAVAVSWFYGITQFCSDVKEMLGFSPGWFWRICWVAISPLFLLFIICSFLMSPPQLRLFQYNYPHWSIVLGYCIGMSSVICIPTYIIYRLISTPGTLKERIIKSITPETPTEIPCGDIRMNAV
T2 sequence (Q63380 1-617): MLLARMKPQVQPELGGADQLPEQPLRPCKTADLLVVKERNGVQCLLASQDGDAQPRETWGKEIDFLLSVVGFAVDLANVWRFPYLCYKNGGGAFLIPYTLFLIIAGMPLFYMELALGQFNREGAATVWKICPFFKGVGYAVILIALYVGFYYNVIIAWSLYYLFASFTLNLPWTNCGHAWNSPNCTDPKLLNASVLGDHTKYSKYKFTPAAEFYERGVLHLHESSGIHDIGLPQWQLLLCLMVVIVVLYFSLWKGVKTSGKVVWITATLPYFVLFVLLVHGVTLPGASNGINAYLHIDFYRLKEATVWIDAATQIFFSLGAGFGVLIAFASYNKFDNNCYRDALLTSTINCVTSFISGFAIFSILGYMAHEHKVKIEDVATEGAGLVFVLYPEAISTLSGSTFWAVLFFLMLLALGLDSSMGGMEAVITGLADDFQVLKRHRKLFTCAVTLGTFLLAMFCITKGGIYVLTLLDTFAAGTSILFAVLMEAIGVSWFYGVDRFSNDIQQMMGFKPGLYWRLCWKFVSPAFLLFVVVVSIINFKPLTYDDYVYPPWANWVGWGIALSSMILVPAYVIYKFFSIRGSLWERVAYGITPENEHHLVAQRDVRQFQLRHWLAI
Sequence of DAT (Q01959 whole entry, species assumed): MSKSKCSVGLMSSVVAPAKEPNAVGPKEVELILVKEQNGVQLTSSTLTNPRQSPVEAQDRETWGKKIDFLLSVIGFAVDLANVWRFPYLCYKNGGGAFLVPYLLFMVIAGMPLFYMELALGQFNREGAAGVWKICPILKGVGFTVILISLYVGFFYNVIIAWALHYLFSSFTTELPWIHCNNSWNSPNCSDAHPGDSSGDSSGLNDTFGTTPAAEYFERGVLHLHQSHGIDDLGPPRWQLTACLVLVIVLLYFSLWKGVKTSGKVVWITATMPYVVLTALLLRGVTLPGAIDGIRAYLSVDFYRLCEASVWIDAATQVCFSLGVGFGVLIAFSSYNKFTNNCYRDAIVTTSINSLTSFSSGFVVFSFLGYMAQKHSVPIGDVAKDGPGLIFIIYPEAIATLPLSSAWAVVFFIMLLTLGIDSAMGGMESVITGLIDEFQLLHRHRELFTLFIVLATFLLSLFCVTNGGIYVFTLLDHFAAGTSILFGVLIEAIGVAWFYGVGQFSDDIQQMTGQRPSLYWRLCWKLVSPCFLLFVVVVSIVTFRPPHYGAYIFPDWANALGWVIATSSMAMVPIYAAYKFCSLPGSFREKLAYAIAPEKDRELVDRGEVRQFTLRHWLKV

## C=CCCC1C(=O)C2CCN1CC2 (centres unmarked) [Compound 7, 2-But-3-enylquinuclidin-3-one]
[1]; [6]
  Ki: > 10000 nM
[1]; at 10 µM
  measurable activity in inhibition of DA reuptake: did not show any measurable activity

## CCCCC1C(c2ccc(C)cc2)C2CCN1CC2 (single isomer, unassigned; (-)) [(−)-13, 2-Butyl-3-(4-methylphenyl)quinuclidine]
[2]
  times more potent than cocaine in binding affinity: 17 times
[2]; Ki (nM) [3H] Mazindol Binding
  Ki: 14 nM
[2]; ratio of Ki values
  fold improvement over the lead compound (3) in binding affinity: 519 fold
[1]
  times more potent than cocaine in inhibition of DA reuptake: 9 times
[1]; [6]
  Ki: 32 nM
[1]; [7]
  fold more potent than (±)-13: approximately 2 fold
  fold more potent than its enantiomer (+)-13: 11 fold
[1]; ratio of Ki values
  fold improvement over the lead compound (3) in inhibition of DA reuptake: 278 fold
[3]; [8]
  Ki: 15 ± 3 nM
[4]; [9]
  Ki: 26 ± 3 nM

## CCCCC1C(c2ccc(C)cc2)C2CCN1CC2 (racemic) [(±)-13, 2-Butyl-3-(4-methylphenyl)quinuclidine]
[2]; Ki (nM) [3H] Mazindol Binding
  Ki: 20 nM
[2]; ratio of Ki values
  fold improvement over 13 (so in the source) in binding activity: 11 fold
  fold improvement over the lead compound (3) in binding affinity: 365 fold
[1]; [6]
  Ki: 49 nM
[1]; ratio of Ki values
  fold improvement over 13 (so in the source) in uptake activity: 5 fold
  fold improvement over the lead compound (3) in inhibition of DA reuptake: 181 fold
[3]; [8]
  Ki: 62 ± 5 nM
[4]; [9]
  Ki: 77 ± 7 nM

## CCCCC1C(c2ccc(C)cc2)C2CCN1CC2 (single isomer, unassigned; (+)) [(+)-13, 2-Butyl-3-(4-methylphenyl)quinuclidine]
[2]; [10]
  Ki: 343 nM
[1]; [6]
  Ki: 354 nM
[3]
  Ki: 164 ± 47 nM
[4]
  Ki: 508 ± 22 nM

## COC(=O)[C@H]1[C@@H](c2ccccc2)C[C@@H]2CC[C@H]1N2C [2 (WIN 35065-2), WIN 35065-2]
[5]
  binding affinity at the DAT site, times better than cocaine: 4 times

## CCCCC1C(c2ccccc2)C2CCN1CC2 (racemic) [(±)-12, 2-Butyl-3-phenylquinuclidine]
[2]
  times more potent than cocaine in binding affinity: as potent as cocaine
[2]; [10]
  Ki: 210 nM
[2]; ratio of Ki values
  fold improvement over the lead compound (3) in binding affinity: 31 fold
[1]
  times more potent than cocaine in inhibition of DA reuptake: as potent as cocaine
[1]; [6]
  Ki: 237 nM
[1]; ratio of Ki values
  fold improvement over the lead compound (3) in inhibition of DA reuptake: 32 fold
[3]
  Ki: 136 ± 11 nM
[4]
  Ki: 655 ± 21 nM

## C=CCCC1N2CCC(CC2)C1(O)c1ccccc1 (centres unmarked) [Compound 8, 2-But-3-enyl-3-phenylquinuclidin-3-ol]
[1]; Ki value (text, refers to Table 1 DA reuptake)
  Ki: 31200 nM
[1]; ratio of Ki values, DA reuptake
  fold less potent than 12: 131 fold
